The nature of data set [1]: Selectivity ratio of IC50 for cytotoxicity against human HCEC cells assessed as inhibition of cell growth to IC50 for cytotoxicity against human MDA-MB-231 cells assessed as inhibition of cell growth. The following applies: HCEC cells versus MDA-MB-231 cells, read-out: Ratio IC50. Format: toxicity, cell-based.
Data set [2] in a line: Selectivity ratio of IC50 for cytotoxicity against human MCF-10A cells assessed as inhibition of cell growth to IC50 for cytotoxicity against human MDA-MB-231 cells assessed as inhibition of cell growth. Format: toxicity, cell-based. The following applies: MCF-10A cells versus MDA-MB-231 cells, read-out: Ratio IC50.
The nature of data set [3]: Selectivity ratio of IC50 for cytotoxicity against human HEK293 cells assessed as inhibition of cell growth to IC50 for cytotoxicity against human MDA-MB-231 cells assessed as inhibition of cell growth. Format: toxicity, cell-based. As to conditions: HEK293 cells versus MDA-MB-231 cells, read-out: Ratio IC50.
Data set [4] is described as follows: Cytotoxicity against human MCF-10A cells assessed as inhibition of cell growth incubated for 72 hrs by MTT assay. Type of data set: toxicity, cell-based.
Data set [5] relates to MDA-MB-231. The data set can be described thus: Cytotoxicity against human MDA-MB-231 cells assessed as inhibition of cell growth incubated for 72 hrs by MTT assay. Type of data set: functional, cell-based. As to conditions: MDA-MB-231, 72 h.
In data set [6] the test system is MDA-MB-453. The data set can be described thus: Cytotoxicity against human MDA-MB-453 cells assessed as inhibition of cell growth incubated for 72 hrs by MTT assay. As to conditions: MDA-MB-453, 72 h. Format: functional, cell-based.
Data set [7] in a line: Cytotoxicity against human HEK293 cells assessed as inhibition of cell growth incubated for 72 hrs by MTT assay. Type of data set: toxicity, cell-based.
A short description of data set [8]: Selectivity ratio of IC50 for cytotoxicity against human HCEC cells assessed as inhibition of cell growth to IC50 for cytotoxicity against human MDA-MB-453 cells assessed as inhibition of cell growth. Type of data set: toxicity, cell-based. As to conditions: HCEC cells versus MDA-MB-453 cells, read-out: Ratio IC50.
In data set [9] the test system is MCF7. Description: Cytotoxicity against human MCF7 cells assessed as inhibition of cell growth incubated for 72 hrs by MTT assay. Format: functional, cell-based. The following applies: MCF7, 72 h.
A short description of data set [10]: Selectivity ratio of IC50 for cytotoxicity against human MCF-10A cells assessed as inhibition of cell growth to IC50 for cytotoxicity against human MCF7 cells assessed as inhibition of cell growth. The following applies: MCF-10A cells versus MCF7 cells, read-out: Ratio IC50. Type of data set: toxicity, cell-based.
The nature of data set [11]: Cytotoxicity against human HCEC cells assessed as inhibition of cell growth incubated for 72 hrs by MTT assay. As to conditions: human, HCEC cells. Format: toxicity, cell-based.
Data set [12] can be described thus: Selectivity ratio of IC50 for cytotoxicity against human HEK293 cells assessed as inhibition of cell growth to IC50 for cytotoxicity against human MDA-MB-453 cells assessed as inhibition of cell growth. Type of data set: toxicity, cell-based. As to conditions: HEK293 cells versus MDA-MB-453 cells, read-out: Ratio IC50.
The nature of data set [13]: Selectivity ratio of IC50 for cytotoxicity against human HEK293 cells assessed as inhibition of cell growth to IC50 for cytotoxicity against human MCF7 cells assessed as inhibition of cell growth. Type of data set: toxicity, cell-based. As to conditions: HEK293 cells versus MCF7 cells, read-out: Ratio IC50.
For data set [14], the system named is 4T1. The data set can be described thus: Cytotoxicity against mouse 4T1 cells assessed as inhibition of cell growth incubated for 72 hrs by MTT assay. Type of data set: functional, cell-based. As to conditions: 4T1, 72 h.
The nature of data set [15]: Selectivity ratio of IC50 for cytotoxicity against human HEK293 cells assessed as inhibition of cell growth to IC50 for cytotoxicity against mouse 4T1 cells assessed as inhibition of cell growth. Format: toxicity, cell-based. As to conditions: HEK293 cells versus 4T1 cells, read-out: Ratio IC50.
A short description of data set [16]: Selectivity ratio of IC50 for cytotoxicity against human HCEC cells assessed as inhibition of cell growth to IC50 for cytotoxicity against human MCF7 cells assessed as inhibition of cell growth. Format: toxicity, cell-based. The following applies: HCEC cells versus MCF7 cells, read-out: Ratio IC50.
Data set [17] is described as follows: Selectivity ratio of IC50 for cytotoxicity against human MCF-10A cells assessed as inhibition of cell growth to IC50 for cytotoxicity against human MDA-MB-453 cells assessed as inhibition of cell growth. Format: toxicity, cell-based. The following applies: MCF-10A cells versus MDA-MB-453 cells, read-out: Ratio IC50.
Data set [18] in a line: Selectivity ratio of IC50 for cytotoxicity against human HCEC cells assessed as inhibition of cell growth to IC50 for cytotoxicity against mouse 4T1 cells assessed as inhibition of cell growth. Type of data set: toxicity, cell-based. The following applies: HCEC cells versus 4T1 cells, read-out: Ratio IC50.
Data set [19] is described as follows: Selectivity ratio of IC50 for cytotoxicity against human MCF-10A cells assessed as inhibition of cell growth to IC50 for cytotoxicity against […] cells assessed as inhibition of cell growth. As to conditions: MCF-10A cells versus 4T1 cells, read-out: Ratio IC50. Type of data set: toxicity, cell-based.

Regarding `CCCCNNC(=O)c1cnc(Nc2cccc3ccccc23)cn1`, the selectivity ratio in data set [1], in [2], in data set [3], in data set [8], in data set [10] and in data set [12] was greater than 40 in each case. In addition, the selectivity ratio in data set [13], in data set [15], in data set [16], in data set [17], in data set [18] and in [19] was greater than 40 throughout. For the same molecule, the IC50 at 72 h was 114 µM in data set [4], 189 µM in data set [7] and 151 µM in data set [11]. Further, the IC50 in [5] was 2.02 µM; in [6] it was 4.67 µM; in data set [9], 4.16 µM; in [14], 0.98 µM.

As for `CCCCNNC(=O)c1cnc(NC(C)=O)cn1`, the IC50 at 72 h in [4] was found to be 106 µM; in data set [7], 229 µM; in data set [11] it was 187 µM. In addition, the half-inhibitory concentration (IC50) came out at 3.05 µM in data set [5], 7.94 µM in data set [6], 1.65 µM in data set [9] and 2.74 µM in data set [14].

With `CCCCNNC(=O)c1cnc(NC(=O)c2ccc3[nH]ccc3c2)cn1`, the IC50 at 72 h in data set [4] turned out to be 105 µM; in [7], 107 µM; in data set [11] it was 130 µM. Also, the IC50 in data set [5] came to 1.69 µM; in data set [6], 4.05 µM; in [9], 2.44 µM; in data set [14] it was 1.43 µM.

In the case of `CCCCNNC(=O)c1cnc(N)cn1`, the selectivity ratio in data set [1], in [2], in data set [3], in [8], in data set [10] and in data set [12] was greater than 40 each time. The selectivity ratio in data set [13], in data set [15], in data set [16], in data set [17], in [18] and in [19] was greater than 40 each time. Further, the IC50 at 72 h in data set [4] was 118 µM; in data set [7] it was 133 µM; in data set [11] it was 215 µM. Moreover, the 50% inhibitory concentration (IC50) turned out to be 1.25 µM in [5], 3.33 µM in data set [6], 1.81 µM in [9] and 1.27 µM in [14].

Take `CCCCNNC(=O)c1cnc(Nc2ccccc2)cn1`: the selectivity ratio in data set [1], in [2], in [3], in data set [8], in data set [10] and in data set [12] was greater than 40 each time. The selectivity ratio in data set [13], in data set [15], in [16], in data set [17], in data set [18] and in data set [19] was greater than 40 throughout. Besides, the IC50 at 72 h in data set [4] was 138 µM; in data set [7] it was 207 µM; in [11] it was 180 µM. For the same molecule, the IC50 amounted to 1.91 µM in [5], 5.18 µM in data set [6], 1.14 µM in data set [9] and 2.17 µM in [14].

`CCCNNC(=O)c1cnc(N)cn1`: the selectivity ratio in data set [1], in data set [2], in [3], in data set [8], in [10] and in [12] was greater than 40 in each case. Moreover, the selectivity ratio in data set [13], in data set [15], in data set [16], in data set [17], in [18] and in [19] was greater than 40 in each case. For the same molecule, the IC50 at 72 h in data set [4] amounted to 139 µM; in data set [7], 141 µM; in [11], 220 µM. Also, the IC50 in data set [5] came to 0.88 µM; in [6], 2.43 µM; in data set [9], 0.99 µM; in [14], 1.08 µM.

For `CCCNNC(=O)c1cnccn1`, the selectivity ratio in data set [1], in data set [2], in [3], in [8], in data set [10] and in data set [12] was greater than 40 throughout. In addition, the selectivity ratio in [13], in data set [15], in data set [16], in [17], in [18] and in data set [19] was greater than 40 each time. Further, the 50% inhibitory concentration (IC50) at 72 h was determined as 117 µM in [4], 134 µM in [7] and 128 µM in [11]. Also, the IC50 in [5] was determined as 1.07 µM; in data set [6], 2.49 µM; in data set [9], 1.39 µM; in data set [14] it was 1.14 µM.

Regarding `CCCNNC(=O)c1cnc(Nc2cccc3ccccc23)cn1`, the selectivity ratio in data set [1], in data set [2], in data set [3], in data set [8], in data set [10] and in data set [12] was greater than 40 in each case. For the same molecule, the selectivity ratio in data set [13], in [15], in data set [16], in data set [17], in data set [18] and in data set [19] was greater than 40 each time. Also, the figures for the IC50 at 72 h in [4], in [7] and in data set [11] were 112 µM, 116 µM and 126 µM, respectively. The IC50 in [5] was 1.74 µM; in data set [6], 2.89 µM; in [9], 1.51 µM; in data set [14], 0.94 µM.

For the molecule `CCCCNNC(=O)c1cnc(N2CCCCC2)cn1`, the IC50 at 72 h in data set [4] stood at 104 µM; in data set [7], 101 µM; in [11] it was 119 µM. Further, the IC50 was determined as 2.93 µM in [5], 6.79 µM in data set [6], 1.87 µM in data set [9] and 3.86 µM in [14].

`CCCCNNC(=O)c1cnccn1`: the selectivity ratio in [1], in data set [2], in [3], in [8], in data set [10] and in data set [12] was greater than 40 each time. Further, the selectivity ratio in data set [13], in [15], in data set [16], in data set [17], in data set [18] and in data set [19] was greater than 40 throughout. Besides, the half-maximal inhibitory concentration (IC50) at 72 h is 103 µM in data set [4], 101 µM in data set [7] and 175 µM in [11]. Moreover, the IC50 was found to be 1.17 µM in data set [5], 2.52 µM in data set [6], 2.44 µM in data set [9] and 0.88 µM in data set [14].

For the molecule `CCCCNNC(=O)c1cnc(NC(=O)c2ccc3ncccc3c2)cn1`, the selectivity ratio in data set [1], in [2], in [3], in data set [8], in data set [10] and in data set [12] was greater than 40 throughout. Further, the selectivity ratio in data set [13], in data set [15], in data set [16], in data set [17], in data set [18] and in data set [19] was greater than 40 each time. Moreover, the IC50 at 72 h turned out to be 220 µM in data set [4], 264 µM in data set [7] and 234 µM in [11]. For the same molecule, the IC50 in [5] was 2.84 µM; in data set [6], 4.92 µM; in data set [9] it was 1.36 µM; in [14] it was 2.92 µM.

The values above are taken from ChEMBL document CHEMBL5365457, “Selective HDAC3 Inhibitors with Potent In Vivo Antitumor Efficacy against Triple-Negative Breast Cancer” (J Med Chem, 2023).
